The values below come from patent US20230382924A1, “MODULATORS OF CYSTIC FIBROSIS TRANSMEMBRANE CONDUCTANCE REGULATOR” (VERTEX PHARMACEUTICALS INCORPORATED, priority 2020, published 2023).

Molecules are shown by their SMILES. Read-outs that look alike come from different tables or passages of the source.

In this assay the target is CFTR (Homo sapiens, UniProt P13569). Kind of assay: Membrane Potential Dye, Enteroid Assay A. The note with it: for EC50: read-out: Ent. A EC50. It is filed as cell-based. Put shortly: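 Signal is reported as % Activity relative to a triple CFTR modulator control (3 μM + 3 μM + 300 nM acute). Read-out: membrane potential fluorescence (20 μM methyl oxonol) monitored for 15 min after chloride-free stimulation. Dye loading took 25 min at room temperature in Bath 1 buffer containing CaCC blockers.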
Sequence of CFTR (P13569 with tags, fused parts or gaps DEL508-508): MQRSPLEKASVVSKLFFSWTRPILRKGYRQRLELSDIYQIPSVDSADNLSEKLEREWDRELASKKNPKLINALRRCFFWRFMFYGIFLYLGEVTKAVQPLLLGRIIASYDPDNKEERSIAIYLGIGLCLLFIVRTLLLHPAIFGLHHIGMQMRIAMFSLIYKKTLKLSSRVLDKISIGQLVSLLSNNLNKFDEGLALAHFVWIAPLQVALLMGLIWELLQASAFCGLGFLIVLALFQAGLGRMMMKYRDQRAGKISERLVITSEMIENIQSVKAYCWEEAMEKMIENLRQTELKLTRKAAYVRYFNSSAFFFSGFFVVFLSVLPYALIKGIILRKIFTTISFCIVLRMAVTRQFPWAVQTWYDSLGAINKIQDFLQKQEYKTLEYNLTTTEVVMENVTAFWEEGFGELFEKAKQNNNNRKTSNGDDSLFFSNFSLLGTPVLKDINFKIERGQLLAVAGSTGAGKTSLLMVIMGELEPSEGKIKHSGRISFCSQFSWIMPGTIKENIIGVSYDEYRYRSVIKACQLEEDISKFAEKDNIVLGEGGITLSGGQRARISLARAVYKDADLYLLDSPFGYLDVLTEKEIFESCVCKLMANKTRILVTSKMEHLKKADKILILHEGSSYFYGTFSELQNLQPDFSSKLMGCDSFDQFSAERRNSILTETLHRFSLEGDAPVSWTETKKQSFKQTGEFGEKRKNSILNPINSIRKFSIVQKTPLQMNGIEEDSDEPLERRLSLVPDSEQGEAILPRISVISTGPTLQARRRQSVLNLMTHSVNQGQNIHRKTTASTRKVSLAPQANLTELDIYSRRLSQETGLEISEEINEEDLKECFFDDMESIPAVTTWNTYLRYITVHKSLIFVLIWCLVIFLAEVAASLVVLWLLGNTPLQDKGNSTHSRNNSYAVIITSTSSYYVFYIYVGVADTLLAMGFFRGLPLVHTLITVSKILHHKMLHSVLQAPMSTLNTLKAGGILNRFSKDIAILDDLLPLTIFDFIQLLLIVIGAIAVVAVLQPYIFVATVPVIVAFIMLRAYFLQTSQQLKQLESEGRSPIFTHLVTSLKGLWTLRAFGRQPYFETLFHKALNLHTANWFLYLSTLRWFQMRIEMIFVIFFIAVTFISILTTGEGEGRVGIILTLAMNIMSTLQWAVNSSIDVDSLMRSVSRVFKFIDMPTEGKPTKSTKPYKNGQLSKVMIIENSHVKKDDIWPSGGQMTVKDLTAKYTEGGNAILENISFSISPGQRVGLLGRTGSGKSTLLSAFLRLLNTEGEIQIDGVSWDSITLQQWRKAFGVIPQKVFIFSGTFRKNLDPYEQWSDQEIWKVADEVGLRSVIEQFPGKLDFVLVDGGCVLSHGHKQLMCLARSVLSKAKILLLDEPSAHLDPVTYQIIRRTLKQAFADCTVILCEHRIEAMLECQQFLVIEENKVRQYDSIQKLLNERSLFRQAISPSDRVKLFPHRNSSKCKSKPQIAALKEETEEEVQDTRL

As to `CC(C)C[C@@H]1COc2cc(-c3cc(C(F)(F)F)nn3C)nc(n2)NS(=O)(=O)c2cccc(c2)C(=O)N1` [Compound 338], for the setting “Enteroid Assay A”, the EC50 was in the range of 3 to 30 µM.

Regarding `CC(C)C[C@@H]1COc2cc(-c3ccccc3)nc(n2)NS(=O)(=O)c2cccc(c2)C(=O)N1` [Compound 340], for the setting “Enteroid Assay A”, the “Ent. A Max Activity” value is reported as “++ (++ is 30-60%)” and the EC50 is 3 to 30 µM.

For `CC(C)C[C@@H]1COc2cc(-c3ccnn3C(C)C)nc(n2)NS(=O)(=O)c2cccc(c2)C(=O)N1` [Compound 341], the “Ent. A Max Activity” value (Enteroid Assay A) was “++ (++ is 30-60%)”.

`CC(C)C[C@@H]1COc2cc(-c3ccccc3OCC3CC3)nc(n2)NS(=O)(=O)c2cccc(c2)C(=O)N1` [Compound 344]: under “Enteroid Assay A”, the “Ent. A Max Activity” value is given as “++ (++ is 30-60%)” and the EC50 is 1 to 3 µM.

For `CC(C)C[C@@H]1COc2cc(-c3ccccc3C(C)C)nc(n2)NS(=O)(=O)c2cccc(c2)C(=O)N1` [Compound 345], under “Enteroid Assay A”, the “Ent. A Max Activity” value is “+++ (+++ is >600%)” and the half-maximal effective concentration (EC50) is under 1 µM.

As to `Cc1cccc(C)c1-c1cc2nc(n1)NS(=O)(=O)c1cccc(c1)C(=O)NC[C@H](Cc1ccccc1)O2` [Compound 346], where the note is “Enteroid Assay A”, the “Ent. A Max Activity” value is reported as “++ (++ is 30-60%)” and the EC50 is under 1 µM.

Turning to `Cc1cccc(C)c1-c1cc2nc(n1)NS(=O)(=O)c1cccc(c1)C(=O)NC(C)(C)CO2` [Compound 348], under “Enteroid Assay A”, the “Ent. A Max Activity” value is given as “+++ (+++ is >600%)” and the EC50 is 3 to 30 µM.

In the case of `Cc1cccc(C)c1-c1cc2nc(n1)NS(=O)(=O)c1cccc(c1)C(=O)N[C@H](c1ccccc1)CO2` [Compound 352], where the note is “Enteroid Assay A”, the “Ent. A Max Activity” value is “+++ (+++ is >600%)” and the half-maximal effective concentration (EC50) is under 1 µM.

With `CC[C@@H]1COc2cc(-c3c(C)cccc3C)nc(n2)NS(=O)(=O)c2cccc(c2)C(=O)N1` [Compound 353], where the note is “Enteroid Assay A”, the “Ent. A Max Activity” value is “++ (++ is 30-60%)” and the EC50 was in the range of 3 to 30 µM.

As to `Cc1cccc(C)c1-c1cc2nc(n1)NS(=O)(=O)c1cccc(c1)C(=O)NC(C(C)C)CO2` (centres unmarked) [Compound 355], for the setting “Enteroid Assay A”, the “Ent. A Max Activity” value is given as “++ (++ is 30-60%)” and the EC50 lay within 1 to 3 µM.

For the compound `Cc1cccc(C)c1-c1cc2nc(n1)NS(=O)(=O)c1cc(n(C)n1)C(=O)N[C@@H](CC1CCCCC1)CO2` [Compound 359], under “Table 8”, the “Ent. A Max Activity” value is given as “+ (+ is <30%)”.

For the compound `Cc1cccc(C)c1-c1cc2nc(n1)NS(=O)(=O)c1cccc(c1)C(=O)NC1(CCCC1)CO2` [Compound 360], where the note is “Table 8”, the “Ent. A Max Activity” value was “+++ (+++ is >60%)” and the EC50 is under 1 µM.

With `Cc1cccc(C)c1-c1cc2nc(n1)NS(=O)(=O)c1cccc(c1)C(=O)N[C@@H]1CCCC[C@@H]1O2` [Compound 363], under “Enteroid Assay A”, the “Ent. A Max Activity” value is recorded as “++ (++ is 30-60%)” and the EC50 is 1 to 3 µM.

As for `Cc1cccc(C)c1-c1cc2nc(n1)NS(=O)(=O)c1cccc(c1)C(=O)N[C@H]1CCCC[C@H]1O2` [Compound 364], for the setting “Enteroid Assay A”, the “Ent. A Max Activity” value was “++ (++ is 30-60%)” and the EC50 was in the range of 3 to 30 µM.

Turning to `CCC(C)(C)C(=O)N1CC[C@H]2Oc3cc(-c4c(C)cccc4C)nc(n3)NS(=O)(=O)c3cccc(c3)C(=O)N[C@@H]2C1` [Compound 370], for the setting “Table 9”, the “Ent. A Max Activity” value is reported as “+++ (+++ is >60%)” and the EC50 lay in the range of 1 to 3 µM.

With `Cc1cccc(C)c1-c1cc2nc(n1)NS(=O)(=O)c1cccc(c1)C(=O)N[C@@H]1CN(C(C)C)CC[C@H]1O2` [Compound 373], for the setting “Table 9”, the “Ent. A Max Activity” value is reported as “+++ (+++ is >60%)” and the EC50 lay in the range of 1 to 3 µM.

Turning to `Cc1cccc(C)c1-c1cc2nc(n1)NS(=O)(=O)c1cccc(c1)C(=O)N[C@@H]1CN(C3CCC4(CC3)CC4)CC[C@H]1O2` [Compound 374], under “Table 9”, the “Ent. A Max Activity” value is “+++ (+++ is >60%)” and the EC50 lay in the range of 1 to 3 µM.

For `Cc1cccc(C)c1-c1cc2nc(n1)NS(=O)(=O)c1cccc(c1)C(=O)N[C@H]1CCN(C3CC4(CCCC4)C3)C[C@H]1O2` [Compound 384], under “Table 9”, the “Ent. A Max Activity” value is on record as “+++ (+++ is >60%)” and the EC50 fell in the range of 1 to 3 µM.

`CCC(CC)[C@@H]1COc2cc(-c3c(C)cccc3C)nc(n2)NS(=O)(=O)c2cccc(c2)C(=O)N1` [Compound 386]: under “Table 8”, the “Ent. A Max Activity” value is on record as “+++ (+++ is >60%)” and the half-maximal effective concentration (EC50) was under 1 µM.

As for `CC(C)C[C@@H]1COc2cc(-c3ccccc3Oc3ccccc3)nc(n2)NS(=O)(=O)c2cccc(c2)C(=O)N1` [Compound 392], where the note is “Table 9”, the “Ent. A Max Activity” value was “++ (++ is 30-60%)” and the EC50 was under 1 µM.

On to `CC(C)C[C@@H]1COc2cc(-c3ccccc3OCc3ccccc3)nc(n2)NS(=O)(=O)c2cccc(c2)C(=O)N1` [Compound 393], for which, for the setting “Table 9”, the “Ent. A Max Activity” value is given as “+++ (+++ is >60%)” and the EC50 is under 1 µM.

For `Cc1ccc(Cc2cccc(C)c2-c2cc3nc(n2)NS(=O)(=O)c2cccc(c2)C(=O)N[C@H](CC(C)C)CO3)cc1` [Compound 394], under “Table 9”, the “Ent. A Max Activity” value was “+++ (+++ is >60%)” and the EC50 was under 1 µM.

Turning to `Cc1cccc(CO)c1-c1cc2nc(n1)NS(=O)(=O)c1cccc(c1)C(=O)N[C@H](CC(C)C)CO2` [Compound 395], where the note is “Table 9”, the “Ent. A Max Activity” value is given as “++ (++ is 30-60%)” and the EC50 was 3 to 30 µM.

For `Cc1cccc(C)c1-c1cc2nc(n1)NS(=O)(=O)c1cccc(c1)C(=O)NCC(c1ccc(C34CC(C3)C4)cc1)O2` (centres unmarked) [Compound 397], for the setting “Table 9”, the “Ent. A Max Activity” value is given as “+ (+ is <30%)” and the EC50 lay in the range of 3 to 30 µM.

`Cc1cccc(C)c1-c1cc2nc(n1)NS(=O)(=O)c1cccc(c1)C(=O)NCC(c1ccc(C34CC(C3)C4)cc1)O2` (centres unmarked) [Compound 398]: under “Table 9”, the “Ent. A Max Activity” value was “+++ (+++ is >60%)” and the EC50 is under 1 µM.

On to `Cc1cccc(C)c1-c1cc2nc(n1)NS(=O)(=O)c1cccc(c1)C(=O)NCC(c1ccc(C(F)(F)F)cc1)O2` (centres unmarked) [Compound 403], for which the EC50 (Table 8) is under 1 µM.

As to `Cc1cccc(C2CNC(=O)c3cccc(c3)S(=O)(=O)Nc3nc(cc(-c4c(C)cccc4C)n3)O2)c1` (centres unmarked) [Compound 404], for the setting “Table 8”, the “Ent. A Max Activity” value is “+++ (+++ is >60%)” and the EC50 was under 1 µM.

`Cc1ccc(C2CNC(=O)c3cccc(c3)S(=O)(=O)Nc3nc(cc(-c4c(C)cccc4C)n3)O2)cc1` (centres unmarked) [Compound 406]: the “Ent. A Max Activity” value (Table 8) was “+ (+ is <30%)”.

With `Cc1ccc(C2CNC(=O)c3cccc(c3)S(=O)(=O)Nc3nc(cc(-c4c(C)cccc4C)n3)O2)cc1` (centres unmarked) [Compound 407], where the note is “Table 8”, the “Ent. A Max Activity” value is “+++ (+++ is >60%)” and the EC50 is under 1 µM.

Consider `Cc1cccc(C)c1-c1cc2nc(n1)NS(=O)(=O)c1cccc(c1)C(=O)NCC(CN1CCCCC1)O2` (centres unmarked) [Compound 410], for which the EC50 (Table 8) was 3 to 30 µM.

As to `Cc1cccc(C)c1-c1cc2nc(n1)NS(=O)(=O)c1cncc(c1)C(=O)N[C@H](CC(C)C)CO2` [Compound 413], for the setting “Table 8”, the “Ent. A Max Activity” value is recorded as “+++ (+++ is >60%)” and the EC50 was 1 to 3 µM.

With `Cc1cccc(C)c1-c1cc2nc(n1)NS(=O)(=O)c1cccc(c1)C(=O)NCC1(CCN(Cc3cccc(OC(F)(F)F)c3F)CC1)CO2` [Compound 431], for the setting “Enteroid Assay A”, the “Ent. A Max Activity” value was “++ (++ is 30-60%)” and the EC50 was under 1 µM.

Take `Cc1cccc(C)c1-c1cc2nc(n1)NS(=O)(=O)c1cccc(c1)C(=O)NCC1(CCN(Cc3ccc(NC(=O)OC(C)(C)C)nc3)CC1)CO2` [Compound 433]: for the setting “Enteroid Assay A”, the “Ent. A Max Activity” value is listed as “++ (++ is 30-60%)” and the EC50 was in the range of 3 to 30 µM.

Regarding `COC(=O)c1cc(CN2CCC3(CC2)CNC(=O)c2cccc(c2)S(=O)(=O)Nc2nc(cc(-c4c(C)cccc4C)n2)OC3)ccc1F` [Compound 437], for the setting “Enteroid Assay A”, the “Ent. A Max Activity” value was “++ (++ is 30-60%)” and the EC50 fell in the range of 3 to 30 µM.
